Test results as given in PubChem BioAssay (NCI).
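Interpolation was linear, between the two tested concentrations surrounding the appropriate level; five concentrations were tested over 48 hours in 96-well plates. TGI marks complete inhibition of growth.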

Experiments:
Assay in all cases: NCI-60 cell line screen, 48 h
UO-31 renal = system: UO-31 renal
UACC-62 melanoma = system: UACC-62 melanoma
HCC-2998 colon = system: HCC-2998 colon
SNB-19 CNS = system: SNB-19 CNS
HOP-62 NSCLC = system: HOP-62 NSCLC
NCI/ADR-RES ovarian = system: NCI/ADR-RES ovarian
SK-MEL-5 melanoma = system: SK-MEL-5 melanoma
KM12 colon = system: KM12 colon
OVCAR-5 ovarian = system: OVCAR-5 ovarian
SR leukemia = system: SR leukemia
HCT-116 colon = system: HCT-116 colon
SK-MEL-2 melanoma = system: SK-MEL-2 melanoma
HS 578T breast = system: HS 578T breast
HOP-92 NSCLC = system: HOP-92 NSCLC
MDA-MB-435 = system: MDA-MB-435
ACHN renal = system: ACHN renal
SF-539 CNS = system: SF-539 CNS

CCCCC[C@H]1CCCCCCCCCC(=O)OC2C(O[C@@H]3OC(C)[C@H](OC(=O)[C@@H](C)CC)C(O[C@@H]4OC(C)[C@H](O)C(O)[C@@H]4O)[C@@H]3OC(=O)[C@H](C)CC)[C@H](OC3C(O)[C@@H](O)C(C)O[C@H]3O1)OC(CO)[C@H]2O (stereo not given in full)
TGI (UO-31 renal): 30.8 µM
TGI (UACC-62 melanoma): 30.9 µM
TGI (HCC-2998 colon): 31.8 µM
TGI (SNB-19 CNS): 32.1 µM
TGI (HOP-62 NSCLC): 32.8 µM
TGI (NCI/ADR-RES ovarian): 36.9 µM
TGI (SK-MEL-5 melanoma): 30.9 µM
TGI (KM12 colon): 35.8 µM
TGI (OVCAR-5 ovarian): 30.6 µM
TGI (SR leukemia): 34.7 µM
TGI (HCT-116 colon): 29.7 µM
TGI (SK-MEL-2 melanoma): 30.5 µM
TGI (HS 578T breast): 35.8 µM
TGI (HOP-92 NSCLC): 37.1 µM

O=C(Cc1ccccc1)NN1C(=O)/C(=C\c2ccccc2O)SC1=Nc1ccccc1
TGI (UO-31 renal): > 100 µM
TGI (UACC-62 melanoma): > 100 µM
TGI (HCC-2998 colon): > 100 µM
TGI (MDA-MB-435): > 100 µM
TGI (ACHN renal): > 100 µM
TGI (SNB-19 CNS): > 100 µM
TGI (SF-539 CNS): > 100 µM
TGI (HOP-62 NSCLC): > 100 µM
TGI (NCI/ADR-RES ovarian): > 100 µM
TGI (SK-MEL-5 melanoma): > 100 µM
TGI (KM12 colon): > 100 µM
TGI (OVCAR-5 ovarian): > 100 µM
TGI (HCT-116 colon): > 100 µM
TGI (SK-MEL-2 melanoma): > 100 µM
TGI (HS 578T breast): > 100 µM
TGI (HOP-92 NSCLC): > 100 µM

Cc1ccc(S[C@@H](C)[C@@](O)(C(N)=O)c2ccccc2)cc1
TGI (UO-31 renal): 30.2 µM
TGI (UACC-62 melanoma): > 100 µM
TGI (HCC-2998 colon): > 100 µM
TGI (MDA-MB-435): > 100 µM
TGI (ACHN renal): > 100 µM
TGI (SNB-19 CNS): > 100 µM
TGI (SF-539 CNS): 60.3 µM
TGI (HOP-62 NSCLC): 62.6 µM
TGI (NCI/ADR-RES ovarian): 49.5 µM
TGI (SK-MEL-5 melanoma): 81.1 µM
TGI (KM12 colon): > 100 µM
TGI (OVCAR-5 ovarian): > 100 µM
TGI (HCT-116 colon): > 100 µM
TGI (SK-MEL-2 melanoma): > 100 µM
TGI (HS 578T breast): > 100 µM
TGI (HOP-92 NSCLC): 37.6 µM

CCCCCCCCCCCCO[P+](=O)OCCCCCCCCCCCC
TGI (UO-31 renal): > 100 µM
TGI (UACC-62 melanoma): > 100 µM
TGI (HCC-2998 colon): > 100 µM
TGI (MDA-MB-435): > 100 µM
TGI (ACHN renal): > 100 µM
TGI (SNB-19 CNS): > 100 µM
TGI (SF-539 CNS): > 100 µM
TGI (HOP-62 NSCLC): > 100 µM
TGI (NCI/ADR-RES ovarian): > 100 µM
TGI (SK-MEL-5 melanoma): > 100 µM
TGI (KM12 colon): 72.2 µM
TGI (OVCAR-5 ovarian): > 100 µM
TGI (HCT-116 colon): > 100 µM
TGI (SK-MEL-2 melanoma): > 100 µM
TGI (HS 578T breast): > 100 µM
TGI (HOP-92 NSCLC): > 100 µM

CC1C2(C)OCC(C#N)(C(=N)O2)C1(C#N)C#N (stereo not given)
TGI (UO-31 renal): > 100 µM
TGI (UACC-62 melanoma): 76.1 µM
TGI (MDA-MB-435): > 100 µM
TGI (ACHN renal): > 100 µM
TGI (SNB-19 CNS): > 100 µM
TGI (SF-539 CNS): 57.3 µM
TGI (NCI/ADR-RES ovarian): > 100 µM
TGI (SK-MEL-5 melanoma): 23.4 µM
TGI (KM12 colon): > 100 µM
TGI (OVCAR-5 ovarian): 85.6 µM
TGI (HCT-116 colon): 42.1 µM
TGI (SK-MEL-2 melanoma): 33.5 µM
TGI (HS 578T breast): 74.4 µM
TGI (HOP-92 NSCLC): 48.9 µM

CCOC(=O)C(C(=O)COC(C)(C)C)[C@@H]1C=C[C@H](OC(C)=O)C1 (stereo not given in full)
TGI (UO-31 renal): > 100 µM
TGI (UACC-62 melanoma): > 100 µM
TGI (HCC-2998 colon): > 100 µM
TGI (MDA-MB-435): > 100 µM
TGI (ACHN renal): > 100 µM
TGI (SNB-19 CNS): > 100 µM
TGI (SF-539 CNS): > 100 µM
TGI (HOP-62 NSCLC): > 100 µM
TGI (NCI/ADR-RES ovarian): > 100 µM
TGI (KM12 colon): > 100 µM
TGI (OVCAR-5 ovarian): > 100 µM
TGI (HCT-116 colon): > 100 µM
TGI (SK-MEL-2 melanoma): > 100 µM
TGI (HS 578T breast): > 100 µM

CCOC(=O)CC(NC(=O)c1ccc(N=NN(C)C)cc1)C(=O)OCC (stereo not given)
TGI (UO-31 renal): > 100 µM
TGI (UACC-62 melanoma): > 100 µM
TGI (HCC-2998 colon): > 100 µM
TGI (ACHN renal): > 100 µM
TGI (SNB-19 CNS): > 100 µM
TGI (SF-539 CNS): > 100 µM
TGI (HOP-62 NSCLC): > 100 µM
TGI (SK-MEL-5 melanoma): > 100 µM
TGI (KM12 colon): > 100 µM
TGI (OVCAR-5 ovarian): > 100 µM
TGI (SR leukemia): > 100 µM
TGI (HCT-116 colon): > 100 µM
TGI (SK-MEL-2 melanoma): > 100 µM

CC(=O)OCC1OC(n2c(-c3ccccc3)c(N=Nc3ccc(C)cc3)c(C)c(C#N)c2=S)C(OC(C)=O)C(OC(C)=O)C1OC(C)=O (stereo not given)
TGI (HCC-2998 colon): > 100 µM
TGI (MDA-MB-435): 36.6 µM
TGI (ACHN renal): > 100 µM
TGI (SNB-19 CNS): 54.5 µM
TGI (HOP-62 NSCLC): 50.1 µM
TGI (NCI/ADR-RES ovarian): 39.9 µM
TGI (KM12 colon): > 100 µM
TGI (OVCAR-5 ovarian): 51.6 µM
TGI (SR leukemia): > 100 µM
TGI (HCT-116 colon): 15.4 µM
TGI (SK-MEL-2 melanoma): 40.9 µM
TGI (HOP-92 NSCLC): 0.856 µM
